# Experimental data reported in patent US20110152094A1, “Herbicidal compositions comprising flufenacet” (Bayer CropScience AG, priority 2009, published 2011).
# Tests used:
# Assay type in all cases: in vivo
# [1] = system: HORVW = Hordeum vulgare, winter barley; assay: Greenhouse trial, selective pre-emergence (PE) action on crop plant (test method 3); conditions: PE application, g of AS/ha: (A) 90, (B) 1200, (A)+(B) 90 + 1200
# Description: (§1) In the standard design of the test, seeds of various broad-leaved weed and weed grass biotypes (origins) were sown in a 8-13 cm diameter pot filled with natural soil of a standard field soil (loamy silt; non-sterile) and covered with a covering soil layer of about 1 cm. The pots were then cultivated in a greenhouse (12-16 h of light, temperature day 20-22° C., night 15-18° C.) until the time of application. The pots were treated on a laboratory track sprayer with spray liquors comprising the compositions according to the invention, mixtures of the prior art or components used individually. Application of the active compounds or active compound combinations formulated as WG, WP, EC or otherwise was carried out at the appropriate growth stages of the plants. The application rate for the spray application was 100-600 l of water/ha. After the treatment, the plants were returned to the greenhouses.
# (§2) About 3 weeks after the application, the soil action or/and foliar action was assessed visually according to a scale of 0-100% in comparison to an untreated comparative group: 0%=no noticeable effect compared to the untreated comparative group; 100%=full effect compared to the untreated comparative group. […]
# STEME = Stellaria media [2] = assay: Greenhouse trial, PE application at different sowing depths (test method 9); conditions: g of AS/ha: (A) 120, (B) 1200, (A)+(B) 120 + 1200
# Description: as §1
# (§3) About 3 weeks after the application, the soil action or/and foliar action was assessed visually according to a scale of 0-100% in comparison to an untreated comparative group: 0%=no noticeable effect compared to the untreated comparative group; 100%=full effect compared to the untreated comparative group.
# (§4) (notes: the term “seeds” also includes vegetative propagation forms such as, for example, rhizome pieces; abbreviations used: h light=hours of illumination, g of AS/ha=gram of active substance per hectare, l/ha=liter per hectare, S=sensitive, R=resistant) • 1. Pre-emergence action against weeds: seeds of various broad-leaved weed and weed grass biotypes (origins) were sown in a 8-13 cm diameter pot filled with natural soil of a standard field soil (loamy silt; non-sterile) and covered with a covering soil layer of about 1 cm. The pots were then cultivated in a greenhouse (12-16 h of light, temperature day 20-22° C., night 15-18° C.) until the time of application. The pots were treated at the BBCH stage 00-10 of the seeds/plants on a laboratory track sprayer with spray liquors comprising the compositions according to the invention, mixtures or components used individually, as WG, WP, EC or other formulations. The application rate for the spray application was 100-600 l of water/ha. After the treatment, the plants were returned to the greenhouses and, when required, treated with fertilizer and watered. • 2. Post-emergence action against weeds: seeds of various broad-leaved weed and weed grass biotypes (origins) were sown in a 8-13 cm diameter pot filled with natural soil of a standard field soil (loamy silt; non-sterile) and covered with a covering soil layer of about 1 cm. The pots were then cultivated in a greenhouse (12-16 h of light, temperature day 20-22° C., night 15-18° C.) until the time of application. The pots were treated at various BBCH stages between 11-25 of the seeds/plants, i.e. generally between two to three weeks after the start of the cultivation, on a laboratory track sprayer with spray liquors comprising the compositions according to the invention, mixtures or components used individually, as WG, WP, EC or other formulations. The application rate for the spray application was 100-600 l of water/ha. After the treatment, the plants were returned to the greenhouses and, when required, treated with fertilizer and watered. • 3. Selective pre-emergence action: seeds of various crop species (origins) were sown in a 8-13 cm diameter pot filled with natural soil of a standard field soil (loamy silt; non-sterile) and covered with a covering soil layer of about 1 cm. The pots were then cultivated in a greenhouse (12-16 h of light, temperature day 20-22° C., night 15-18° C.) until the time of application. The pots were treated at the BBCH stage 00-10 of the seeds/plants on a laboratory track sprayer with spray liquors comprising the compositions according to the invention, mixtures or components used individually, as WG, WP, EC or other formulations. The application rate for the spray application was 100-600 l of water/ha. […]
# LOLPE = Lolium perenne [3] = assay: as above; conditions: g of AS/ha: (A) 120, (B) 1200, (A)+(B) 120 + 1200
# Description: as §1, §3, §4
# [4] = system: HORVW = Hordeum vulgare, winter barley; assay: as above; conditions: g of AS/ha: (A) 120, (B) 1200, (A)+(B) 120 + 1200
# Description: as §1, §3, §4
# [5] = system: TRZAW = Triticum aestivum, winter wheat; assay: as above; conditions: g of AS/ha: (A) 120, (B) 1200, (A)+(B) 120 + 1200
# Description: as §1, §3, §4
# STEME = Stellaria media [6] = assay: Greenhouse trial, post-emergence (PO) action against weeds (test method 2); conditions: PO application; g of AS/ha: (A) 120, (B) 1200, (A)+(B) 120 + 1200; about 3 weeks after application
# Description: as §1, §3, §4
# LOLPE = Lolium perenne [7] = assay: as above; conditions: PO application; g of AS/ha: (A) 120, (B) 1200, (A)+(B) 120 + 1200; about 3 weeks after application
# Description: as §1, §3, §4
# VIOAR = Viola arvensis = assay: as above; conditions: PO application; g of AS/ha: (A) 120, (B) 1200, (A)+(B) 120 + 1200; about 3 weeks after application
# Description: as §1, §3, §4
# [8] = system: HORVS = Hordeum vulgare, summer barley; assay: Greenhouse trial, selective post-emergence (PO) action on crop plant (test method 4); conditions: PO application, g of AS/ha: (A) 120, (B) 1200, (A)+(B) 120 + 1200, about 3 weeks after application
# Description: as §1, §2
# [9] = system: MATCH = Matricaria chamomilla; assay: Greenhouse trial, pre-emergence (PE) action against weeds (test method 1); conditions: PE application; g of AS/ha: (A) 90, (B) 1200, (A)+(B) 90 + 1200
# Description: as §1, §3
# (§5) (notes: the term “seeds” also includes vegetative propagation forms such as, for example, rhizome pieces; abbreviations used: h light=hours of illumination, g of AS/ha=gram of active substance per hectare, l/ha=liter per hectare, S=sensitive, R=resistant) • 1. Pre-emergence action against weeds: seeds of various broad-leaved weed and weed grass biotypes (origins) were sown in a 8-13 cm diameter pot filled with natural soil of a standard field soil (loamy silt; non-sterile) and covered with a covering soil layer of about 1 cm. The pots were then cultivated in a greenhouse (12-16 h of light, temperature day 20-22° C., night 15-18° C.) until the time of application. The pots were treated at the BBCH stage 00-10 of the seeds/plants on a laboratory track sprayer with spray liquors comprising the compositions according to the invention, mixtures or components used individually, as WG, WP, EC or other formulations. The application rate for the spray application was 100-600 l of water/ha. After the treatment, the plants were returned to the greenhouses and, when required, treated with fertilizer and watered. • 2. Post-emergence action against weeds: seeds of various broad-leaved weed and weed grass biotypes (origins) were sown in a 8-13 cm diameter pot filled with natural soil of a standard field soil (loamy silt; non-sterile) and covered with a covering soil layer of about 1 cm. The pots were then cultivated in a greenhouse (12-16 h of light, temperature day 20-22° C., night 15-18° C.) until the time of application. […]
# AVEFA = Avena fatua = assay: as above; conditions: PE application; g of AS/ha: (A) 90, (B) 1200, (A)+(B) 90 + 1200
# Description: as §1, §3, §5
# [10] = system: ALOMY sensitive (Alopecurus myosuroides); assay: Greenhouse trial, PE application on resistant biotypes (test method 8); conditions: sensitive biotype, g of AS/ha: (A) 90, (B) 1200, (A)+(B) 90 + 1200
# Description: as §1, §3, §4
# [11] = system: MATCH resistant (Matricaria chamomilla); assay: as above; conditions: resistant biotype, g of AS/ha: (A) 90, (B) 1200, (A)+(B) 90 + 1200, (C) 10
# Description: as §1, §3, §4
smiles,measurement,setting,value
"CCC(CC)Nc1c([N+](=O)[O-])cc(C)c(C)c1[N+](=O)[O-] [(B) pendimethalin, N-(1-ethylpropyl)-3,4-dimethyl-2,6-dinitrobenzenamine]","activity on crop plant HORVW (visual assessment, scale 0-100% vs untreated)",[1],50%
same,"activity STEME, sowing depth 5 mm (visual assessment, scale 0-100% vs untreated)",STEME = Stellaria media [2]; sowing depth 5 mm,50%
same,"activity STEME, sowing depth 20 mm (visual assessment, scale 0-100% vs untreated)",STEME = Stellaria media [2]; sowing depth 20 mm,70%
same,"activity LOLPE, sowing depth 5 mm (visual assessment, scale 0-100% vs untreated)",LOLPE = Lolium perenne [3]; sowing depth 5 mm,30%
same,"activity LOLPE, sowing depth 20 mm (visual assessment, scale 0-100% vs untreated)",LOLPE = Lolium perenne [3]; sowing depth 20 mm,10%
same,"activity on crop plant HORVW, sowing depth 5 mm (visual assessment, scale 0-100% vs untreated)",[4]; sowing depth 5 mm,25%
same,"activity on crop plant HORVW, sowing depth 20 mm (visual assessment, scale 0-100% vs untreated)",[4]; sowing depth 20 mm,0%
same,"activity on crop plant TRZAW, sowing depth 5 mm (visual assessment, scale 0-100% vs untreated)",[5]; sowing depth 5 mm,45%
same,"activity on crop plant TRZAW, sowing depth 20 mm (visual assessment, scale 0-100% vs untreated)",[5]; sowing depth 20 mm,10%
same,"activity STEME (visual assessment, scale 0-100% vs untreated)",STEME = Stellaria media [6],30%
same,"activity LOLPE (visual assessment, scale 0-100% vs untreated)",LOLPE = Lolium perenne [7],0%
same,"activity VIOAR (visual assessment, scale 0-100% vs untreated)",VIOAR = Viola arvensis,30%
same,"activity on crop plant HORVS (visual assessment, scale 0-100% vs untreated)",[8],10%
same,"activity MATCH (visual assessment, scale 0-100% vs untreated)",[9],18%
same,"activity AVEFA (visual assessment, scale 0-100% vs untreated)",AVEFA = Avena fatua,88%
same,"activity ALOMY sensitive (visual assessment, scale 0-100% vs untreated)",[10],30%
same,"activity MATCH resistant (visual assessment, scale 0-100% vs untreated)",[11],10%
